Patent EP4682145A1, “BENZOHETEROCYCLIC COMPOUND, AND PREPARATION METHOD THEREFOR AND USE THEREOF” (Cascade Pharmaceuticals, Inc., priority 2023, dated 2024)

Target: T1, human FFAR1 (GPR40) (Homo sapiens, UniProt O14842)
T1 construct: Flag; expressed in transfected cells; host or cells: HEK293T
Experiment: NFAT-RE-based reporter gene activity assay (Dual-Glo luciferase) for GPR40 agonistic activity in co-transfected HEK293T cells
Format: cell-based
Conditions: 4-hour treatment; for Efficacy (%): class symbols
From the text: The pcDNA3.0-flag-FFAR1 (GPR40) plasmid was constructed using conventional molecular cloning methods. The main steps were as follows: The full-length cDNA sequence of human FFAR1 (GPR40) (NM_005303.3) was inserted into the HindIII and XbaI restriction sites of the pcDNA3.0 vector via PCR technology, resulting in the pcDNA3.0-flag-FFAR1 (GPR40) plasmid; pGL4.30 [luc2P NFAT-RE] (# E8481) and pRL-TK (#E2241) plasmids were both purchased from Promega; the plasmids were transformed into DH5α E. coli using the CaCl2 method, further cultured and amplified, and then purified using a plasmid extraction kit (TIANGEN, # DP117) to obtain the corresponding plasmid DNA.
HEK293T cells were seeded in a 96-well plate at a density of 1 × 10^4/well one day prior to plasmid transfection. Cell transfection was performed according to the instructions of the transfection reagent FuGENE® HD (Promega, # E2311). The main steps were as follows: Taking one well as an example, plasmids pcDNA3.0-flag-FFAR1 (GPR40), pGL4.30 [luc2P NFAT-RE], and pRL-TK were added at ratios of 50 ng, 50 ng, and 5 ng, respectively, into 10 µL of Opti-MEM™ I medium (Gibco, #11058021) and mixed thoroughly; then, 0.2 µL of FuGENE® HD was added, mixed thoroughly, and allowed to stand at room temperature for 5 minutes; finally, this 10 µL mixture was added to the cell well containing 100 µL of culture medium. 24 hours after co-transfection, the compounds were serially diluted at half-logarithmic intervals with 1 µM as the highest concentration, resulting in 10 concentration gradients, which were added to the cell culture medium for a 4-hour treatment.
After 4 hours of compound treatment, the cells were assayed according to the instructions of the Dual-Glo® Luciferase Assay System (Promega, # E2940). The main steps were as follows: 50 µL of culture medium was aspirated from each well and discarded, followed by the addition of 50 µL of Dual-Glo® Luciferase Reagent, and the mixture was shaken at room temperature for 10 minutes. Then, 80 µL of the lysate reaction solution was transferred to a white opaque optiPlate-96 well plate, and the luminescence signal of Firefly luciferase (Firefly-Luc) was measured using an MD i3x multifunctional microplate reader. Subsequently, 40 µL of Dual-Glo® Stop & Glo® Reagent was added, and the mixture was shaken at room temperature for 10 minutes. Finally, the luminescence signal of Renilla luciferase (Renilla-Luc) was measured using the MD i3x multifunctional microplate reader. The ratio of Firefly-Luc/Renilla-Luc was used as the compound's agonistic activity toward GPR40, and normalization was performed using the ratio of the solvent DMSO group. A dose-response curve was fitted using a four-parameter model with GraphPad Prism 8.0 software to calculate the EC50 value.

T1 sequence (O14842 whole entry): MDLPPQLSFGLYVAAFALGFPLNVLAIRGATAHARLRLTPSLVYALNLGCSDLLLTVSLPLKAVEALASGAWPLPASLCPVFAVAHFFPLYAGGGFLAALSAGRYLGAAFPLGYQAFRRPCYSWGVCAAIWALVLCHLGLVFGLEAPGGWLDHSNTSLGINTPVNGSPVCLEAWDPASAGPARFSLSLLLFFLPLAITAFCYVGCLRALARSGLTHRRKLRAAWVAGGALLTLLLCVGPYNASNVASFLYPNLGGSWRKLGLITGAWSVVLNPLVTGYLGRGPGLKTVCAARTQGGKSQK

Row | Compound | EC50 [nM] | Efficacy (%)
1 | COc1ccc(F)c(N2CCC(c3oc4cc([C@@H](CC(=O)O)C5CC5)ccc4c3C(=O)Nc3cc(C)ccc3Cl)CC2)c1 [Compound 343] | ≤ 10 | ††† (Efficacy (%) > 150)
2 | COc1ccc(F)c(N2CCC(c3oc4cc(C(CC(=O)O)C5CC5)ccc4c3-c3ccc(C(=O)N(C)CC(C)(C)C)cc3)CC2)c1 (centres unmarked) [Compound 202] | 100 to 500 | †† (150 ≥ Efficacy (%) > 100)
3 | COc1cccc(N2CCC(c3oc4cc(C(CC(=O)O)C5CC5)ccc4c3-c3cccc(N(CC(C)(C)C)C(C)=O)n3)CC2)c1 (centres unmarked) [Compound 148] | 100 to 500 | †† (150 ≥ Efficacy (%) > 100)
4 | COc1cccc(N2CCC(c3oc4cc(C(CC(=O)O)C5CC5)ccc4c3-c3cnn(C(C)(C)C#N)c3)CC2)c1 (centres unmarked) [Compound 127] | 100 to 500 | ††† (Efficacy (%) > 150)
5 | CCCCCCNC(=O)c1ccc(OC)cc1N1CCC(c2oc3cc(C(CC(=O)O)C4CC4)ccc3c2-c2cnn(C(C)(C)C)c2)CC1 (centres unmarked) [Compound 95] | 100 to 500 | †† (150 ≥ Efficacy (%) > 100)
6 | COc1cccc(N2CCC(c3oc4cc([C@@H](CC(=O)O)C5CC5)ccc4c3C(=O)Nc3cc(OC(F)(F)F)ccc3F)CC2)c1 [Compound 262] | < 10 | †† (150 ≥ Efficacy (%) > 100)
7 | COc1cccc(N2CCC(c3oc4cc(C(CC(=O)O)C5CC5)ccc4c3-c3nnc(C4(C)CC4)o3)CC2)c1 (centres unmarked) [Compound 134] | 100 to 500 | † (100 ≥ Efficacy (%) > 50)
8 | COc1ccc(F)c(N2CCC(c3oc4cc(C(CC(=O)O)C5CC5)ccc4c3-c3cccc(Cl)c3)CC2)c1 (centres unmarked) [Compound 171] | 100 to 500 | †† (150 ≥ Efficacy (%) > 100)
9 | COc1cccc(N2CCC(c3oc4cc(C(CC(=O)O)C5CC5)ccc4c3-c3ncn(C)n3)CC2)c1 (centres unmarked) [Compound 121] | > 500 | †† (150 ≥ Efficacy (%) > 100)
10 | COc1cccc(N2CCC(c3oc4cc([C@@H](CC(=O)O)C5CC5)ccc4c3C(=O)Nc3ccccc3C)CC2)c1F [Compound 324] | ≤ 10 | †† (150 ≥ Efficacy (%) > 100)
11 | COc1ccc(F)c(N2CCC(c3oc4cc(C(CC(=O)O)C5CC5)ccc4c3/C=C/C(C)(C)C)CC2)c1 (centres unmarked) [Compound 366] | 10 to 100 | †† (150 ≥ Efficacy (%) > 100)
12 | COc1cccc(N2CCC(c3oc4cc(C(CC(=O)O)C5CC5)ccc4c3C(=O)Nc3c(F)cccc3OC)CC2)c1 (centres unmarked) [Compound 259] | > 500 | †† (150 ≥ Efficacy (%) > 100)
13 | COc1ccc(Cl)c(N2CCC(c3oc4cc(C(CC(=O)O)C5CC5)ccc4c3-c3cccc(C(C)(C)C)c3)CC2)c1 (centres unmarked) [Compound 203] | 100 to 500 | † (100 ≥ Efficacy (%) > 50)
14 | COc1ccc(F)c(N2CCC(c3oc4cc([C@@H](CC(=O)O)C5CC5)ccc4c3CCC(C)(C)C)CC2)c1 [Compound 389] | 100 to 500 | †† (150 ≥ Efficacy (%) > 100)
15 | COc1cccc(N2CCC(c3oc4cc([C@@H](CC(=O)O)C5CC5)ccc4c3-c3nc4ccccn4n3)CC2)c1 [Compound 153] | 100 to 500 | ††† (Efficacy (%) > 150)
16 | COc1cccc(N2CCC(c3oc4cc([C@@H](CC(=O)O)C5CC5)ccc4c3-c3cccc(C)c3)CC2)c1 [Compound 28] | 100 to 500 | ††† (Efficacy (%) > 150)
17 | COc1ccc(F)c(N2CCC(c3oc4cc(C(CC(=O)O)C5CC5)ccc4c3-c3cccc(C#N)c3)CC2)c1 (centres unmarked) [Compound 174] | 100 to 500 | †† (150 ≥ Efficacy (%) > 100)
18 | COc1ccc(F)c(N2CCC(c3oc4cc(C(CC(=O)O)C5CC5)ccc4c3C(=O)Nc3ccccc3C)CC2)c1 (centres unmarked) [Compound 319] | 100 to 500 | †† (150 ≥ Efficacy (%) > 100)
19 | COc1ccc(F)c(N2CCC(c3oc4cc(C(CC(=O)O)C5CC5)ccc4c3C3=CCCCC3)CC2)c1 (centres unmarked) [Compound 379] | 100 to 500 | †† (150 ≥ Efficacy (%) > 100)
20 | COc1ccc(F)c(N2CCC(c3oc4cc(C(CC(=O)O)C5CC5)ccc4c3C(=O)Nc3ccccc3)CC2)c1 (centres unmarked) [Compound 314] | 100 to 500 | †† (150 ≥ Efficacy (%) > 100)

Row | Compound | EC50 [nM] | Efficacy (%)
21 | COc1ccc(F)c(N2CCC(c3oc4cc([C@@H](CC(=O)O)C5CC5)ccc4c3-c3ccc(C)cc3)CC2)c1 [Compound 161] | 100 to 500 | † (100 ≥ Efficacy (%) > 50)
22 | CC(C)(C)n1cc(-c2c(C3CCN(c4cccc(C5CC5)c4)CC3)oc3cc(C(CC(=O)O)C4CC4)ccc23)cn1 (centres unmarked) [Compound 45] | 100 to 500 | †† (150 ≥ Efficacy (%) > 100)
23 | COc1ccc(F)c(N2CCC(c3oc4cc(C(CC(=O)O)C5CC5)ccc4c3C(=O)NC3CC3)CC2)c1 (centres unmarked) [Compound 308] | > 500 | †† (150 ≥ Efficacy (%) > 100)
24 | COc1ccc(C(=O)N(C)c2ccccc2)c(N2CCC(c3oc4cc([C@@H](CC(=O)O)C5CC5)ccc4c3-c3cnn(C(C)(C)C)c3)CC2)c1 [Compound 93] | 100 to 500 | ††† (Efficacy (%) > 150)
25 | COc1ccc(F)c(N2CCC(c3oc4cc(C(CC(=O)O)C5CC5)ccc4c3-c3cccc(N(CC(C)(C)C)C(C)=O)c3)CC2)c1 (centres unmarked) [Compound 190] | 100 to 500 | †† (150 ≥ Efficacy (%) > 100)
26 | Cc1ccc(N2CCC(c3oc4cc(C(CC(=O)O)C5CC5)ccc4c3-c3cccc(C(C)(C)C)c3)CC2)cc1 (centres unmarked) [Compound 3] | 100 to 500 | †† (150 ≥ Efficacy (%) > 100)
27 | CN1CCC(c2oc3cc(C(CC(=O)O)C4CC4)ccc3c2-c2cccc(C(C)(C)C)c2)CC1 (centres unmarked) [Compound 1] | > 1000 | † (100 ≥ Efficacy (%) > 50)
28 | COc1ccc(F)c(N2CCC(c3oc4cc([C@@H](CC(=O)O)C5CC5)ccc4c3/C=C/C(C)(C)O)CC2)c1 [Compound 369] | 100 to 500 | † (100 ≥ Efficacy (%) > 50)
29 | CCc1ccc(-c2c(C3CCN(c4cc(OC)ccc4F)CC3)oc3cc(C(CC(=O)O)C4CC4)ccc23)cc1 (centres unmarked) [Compound 162] | 100 to 500 | ††† (Efficacy (%) > 150)
30 | CCOc1cccc(N2CCC(c3oc4cc(C(CC(=O)O)C5CC5)ccc4c3-c3ccc(C(C)(C)C)cc3)CC2)c1 (centres unmarked) [Compound 15] | 100 to 500 | ††† (Efficacy (%) > 150)
31 | COc1ccc(F)c(N2CCC(c3oc4cc(C(CC(=O)O)C5CC5)ccc4c3C=C(C)C)CC2)c1 (centres unmarked) [Compound 370] | 100 to 500 | †† (150 ≥ Efficacy (%) > 100)
32 | COc1cccc(N2CCC(c3oc4cc([C@@H](CC(=O)O)C5CC5)ccc4c3C(O)c3ccccc3)CC2)c1 (some centres unmarked) [Compound 424] | > 500 | †† (150 ≥ Efficacy (%) > 100)
33 | COc1cccc(N2CCC(c3oc4cc(C(CC(=O)O)C5CC5)ccc4c3C(=O)Nc3cccc(OC)c3F)CC2)c1 (centres unmarked) [Compound 258] | 100 to 500 | ††† (Efficacy (%) > 150)
34 | COc1ccc(F)c(N2CCC(c3oc4cc(C(CC(=O)O)C5CC5)ccc4c3C(=O)Nc3ccc(C(C)(C)C)cc3)CC2)c1 (centres unmarked) [Compound 315] | 100 to 500 | †† (150 ≥ Efficacy (%) > 100)
35 | COc1ccc(F)c(N2CCC(c3oc4cc(C(CC(=O)O)C5CC5)ccc4c3C(=O)Nc3ccc(F)cc3)CC2)c1 (centres unmarked) [Compound 317] | 100 to 500 | † (100 ≥ Efficacy (%) > 50)
36 | COc1cccc(N2CCC(c3oc4cc([C@@H](CC(=O)O)C5CC5)ccc4c3C(=O)Nc3cc(OC(F)(F)F)ccc3Cl)CC2)c1 [Compound 277] | > 500 | ††††
37 | COc1cccc(N2CCC(c3oc4cc([C@@H](CC(=O)O)C5CC5)ccc4c3C(C)N(C)CC(C)(C)C)CC2)c1 (some centres unmarked) [Compound 439] | 100 to 500 | †† (150 ≥ Efficacy (%) > 100)
38 | COc1cccc(N2CCC(c3oc4cc([C@@H](CC(=O)O)C5CC5)ccc4c3-c3ccc4cccc(F)c4n3)CC2)c1 [Compound 155] | 10 to 100 | ††† (Efficacy (%) > 150)
39 | CC(c1ccccc1OC(F)(F)F)N1CCC(c2oc3cc(C(CC(=O)O)C4CC4)ccc3c2C(=O)Nc2ccccc2F)CC1 (centres unmarked) [Compound 327] | 100 to 500 | †† (150 ≥ Efficacy (%) > 100)
40 | COc1cccc(N2CCC(c3oc4cc(C(CC(=O)O)C5CC5)ccc4c3C(=O)Nc3ncc(C(C)(C)C)s3)CC2)c1 (centres unmarked) [Compound 299] | 100 to 500 | †† (150 ≥ Efficacy (%) > 100)
